Test results from patent US20070110815A1, “Micronised azodicarbonamide, and the preparation and use thereof” (priority 2005, published 2007).

Assays:
[1] = oral administration; cited from earlier work
[2] = water and organic solvents; cited from earlier work
[3] = test system: reactivity of the respiratory tracts; assay: Reactivity of respiratory tracts in ovalbumin-sensitised rats; type: in vivo; details: sensitised Brown Norway rats, force feeding twice a day 125 and 250 mg/kg, day -1 to day 20, all doses of methacholine
Experimental: At day 0, Brown Norway rats (200-250 g) were sensitised by intraperitoneal administration (1 ml/rat) of ovalbumin (1 mg/ml) mixed with aluminium hydroxide (100 mg/ml).
In this experiment, micronised ADA according to the invention is administered to rats by force feeding in the form of a suspension in poloxamer 188. The administration takes place twice a day in doses of 125 and 250 mg/kg, from day −1 up to day 20.

[4] = Particle size analysis by laser diffraction during micronisation; type: physicochemical
Experimental: A thorough fragmentation of dry powder forming each of these batches is carried out, feeding them at a rate of 4 kg/h into a known dry powder disintegration device, for example into a device of the Alpine® 100 AFG Jet Mill model from Hosokawa Micron Group. This device comprises a cylindrical milling chamber with a conical bottom which is made of stainless steel coated with an elastomer. This chamber has a diameter of 100 mm and a volume of 800 cm^3. The particles to disintegrate are introduced into the chamber by an endless screw. Then the particles are projected against each other by compressed air jets from 3 air nozzles having a diameter of 2 mm which run into each other at the same point. The obtained air stream carries then the disintegrated particles at 50 bar towards a turbo-selecting device which is integrated within the milling chamber. In this example this turbo-selecting device has the shape of a squirrel-cage which has adjustable rotational speed of 5000 to 16000 rpm.
This device allows the exit of the particles smaller than a determined size, in this case <5 μm, and repulses into the milling chamber the particles having a greater size. The fine particles (searched size) which leave the milling chamber are collected for example by means of a cyclone.
The sizes of the particles were then analysed. In order to analyse the diameters use was made of a RODOS & RODOS/M dry powder dispersion device (from Sympatec GmbH) and a VIBRI vibratory powder feed tool (from Sympatec GmbH) with a HELOS laser diffraction system (from Sympatec GmbH). The powders analysed were fed at a rate of 35% of the maximum rate. On passing through an air jet, the powder is subjected to shearing forces of around 3.0 bar. Using a vacuum (90-100 mbar) they are then sucked into the path of a HE/NE laser beam. The diffraction of the laser beam by the particles creates a model which is measured and converted by computer into a particle size distribution using software associated with the HELOS system.

[5] = Particle size stability of micronised ADA in capsules on storage; type: physicochemical
Experimental: After having manufactured micronised ADA under the conditions of examples 1 and 2, a size distribution of the ADA crystals was obtained, as illustrated on the appended FIG. 2.
Thereafter the active substance was incorporated into capsules which have been stored for 11 months within a refrigerator at 8° C., in order to determine the stability of ADA according to the standards (International Harmonisation Conference: ICH).
The size of the ADA particles has been determined again at this moment as well as after 3 additional months within a stove at 25° C./60% humidity.

healthy male volunteers = assay: Examination of toxicity on human beings (urine examination by flow cytometry); type: in vivo; details: capsules, seven days, up to 6 g per day, limit of detection 2 μm
Experimental: “ESB free” gelatine-coated capsules containing a composition as described in example 4 were administered for seven days to healthy male volunteers at a dose ranging up to 6 g per day (single dose of 150 to 6,000 mg and repeated doses of 300 to 2,400 mg).
A urine examination was carried out using flow cytometry (limit of detection 2 μm).

rats = assay: 28-day oral toxicity in rats; type: in vivo; details: daily 900, 150 and 25 mg/kg for 28 days, suspension in carboxymethylcellulose
Experimental: (§1) Tests were carried out on rats to which daily doses of 900, 150 and 25 mg of ADA according to the invention/kg of body weight were administered orally for 28 days. The ADA was in the form of a micronised powder according to the invention in suspension in carboxymethylcellulose. Likewise an identical test was carried out on dogs at daily doses for 28 days of 400, 100 and 25 mg of ADA according to the invention/kg of body weight.

[6] = Comparative examination of bioavailability (biurea in blood after force feeding); type: in vivo; details: mice, force feeding, 10, 5 and 1.25 mg/kg, 30 minutes after ingestion, suspension in CMC, FIG. 1
Experimental: 54 mice are randomly divided into 9 groups of 6 animals and receive a dose of ADA by force feeding.
The concentration of biurea, the only catabolite of ADA “in vivo” (Concise International Chemical Assessment Document 16; World Health Organisation: Geneva, 1999) in the blood serum (μg/ml) was determined 30 minutes after ingestion by means of a high-pressure liquid chromatography method. This concentration represents a measurement of the bioavailability of ADA in the organism.
Analysis of the plasma samples was carried out by high-pressure liquid chromatography, followed by mass spectrometry, in accordance with the standards of the “Food and Drug (USA) Administration May 2001: Guidance for Industry: Bioanalytical method validation” (lowest quantification limit (LOQ) of 0.20 μg/ml and linear method up to 20 μg/ml).

dogs = assay: 28-day oral toxicity in dogs; type: in vivo
Experimental: as §1
On the dogs that received 400 mg/kg/day for 28 days, a histological examination was also carried out with dissection of the kidneys.

[7] = End of micronisation, listed as A
[8] = Middle of micronisation, listed as A
[9] = Start of micronisation, listed as A
[10] = End of micronisation, listed as B
[11] = Middle of micronisation, listed as B
[12] = Start of micronisation, listed as B
[13] = End of micronisation, listed as C
[14] = Middle of micronisation, listed as C
[15] = Start of micronisation, listed as C
[16] = Test date Aug. 7, 2005, 3 additional months at 25° C./60% humidity
[17] = Test date Jun. 20, 2004, after manufacture
[18] = Test date May 7, 2005, capsules stored 11 months in refrigerator at 8° C.

In the case of `NC(=O)N=NC(N)=O` [ADA as commercially available, azodicarbonamide], the “Formation of biurea crystals in the urine” value [1] is given as “the formation of biurea crystals is quickly observed in the urine”.
In the case of `NC(=O)N=NC(N)=O` [ADA, Azodicarbonamide], the Solubility [2] is listed as “not very soluble in water or in the majority of organic solvents” and the “Inhibition of the increase in reactivity of the respiratory tracts caused by antigen attack” value [3] is listed as “significant inhibition”.
For `NC(=O)N=NC(N)=O` [Batch A, azodicarbonamide], the “Granulometry of particles during micronisation d10” value [4, 7] was 0.56 μm, the “Granulometry of particles during micronisation d50” value [4, 7] was 1.51 μm and the “Granulometry of particles during micronisation d90” value [4, 7] was 3.50 μm. For the same compound, the “Granulometry of particles during micronisation d10” value [4, 8] was 0.56 μm, the “Granulometry of particles during micronisation d50” value [4, 8] was 1.53 μm and the “Granulometry of particles during micronisation d90” value [4, 8] was 3.55 μm. For the same compound, the “Granulometry of particles during micronisation d10” value [4, 9] was 0.58 μm, the “Granulometry of particles during micronisation d50” value [4, 9] was 1.61 μm and the “Granulometry of particles during micronisation d90” value [4, 9] was 3.78 μm.
With `NC(=O)N=NC(N)=O` [Batch B, azodicarbonamide] the “Granulometry of particles during micronisation d10” value [4, 10] was 0.59 μm, the “Granulometry of particles during micronisation d50” value [4, 10] was 1.56 μm and the “Granulometry of particles during micronisation d90” value [4, 10] was 3.68 μm. The “Granulometry of particles during micronisation d10” value [4, 11] was 0.58 μm, the “Granulometry of particles during micronisation d50” value [4, 11] was 1.59 μm and the “Granulometry of particles during micronisation d90” value [4, 11] was 3.88 μm. The “Granulometry of particles during micronisation d10” value [4, 12] was 0.58 μm, the “Granulometry of particles during micronisation d50” value [4, 12] was 1.58 μm and the “Granulometry of particles during micronisation d90” value [4, 12] was 3.71 μm.
With `NC(=O)N=NC(N)=O` [Batch C, azodicarbonamide] the “Granulometry of particles during micronisation d10” value [4, 13] was 0.57 μm, the “Granulometry of particles during micronisation d50” value [4, 13] was 1.58 μm and the “Granulometry of particles during micronisation d90” value [4, 13] was 3.85 μm. The “Granulometry of particles during micronisation d10” value [4, 14] was 0.57 μm, the “Granulometry of particles during micronisation d50” value [4, 14] was 1.56 μm and the “Granulometry of particles during micronisation d90” value [4, 14] was 3.69 μm. For the same compound, the “Granulometry of particles during micronisation d10” value [4, 15] was 0.56 μm, the “Granulometry of particles during micronisation d50” value [4, 15] was 1.47 μm and the “Granulometry of particles during micronisation d90” value [4, 15] was 3.43 μm.
In the case of `NC(=O)N=NC(N)=O` [Batch K9J, azodicarbonamide], the “Particle sizes D10” value [5, 16] is reported as 0.76 μm, the “Particle sizes D50” value [5, 16] is reported as 2.05 μm and the “Particle sizes D10” value [5, 17] is reported as 0.56 μm. For the same compound, the “Particle sizes D50” value [5, 17] was 1.51 μm, the “Particle sizes D10” value [5, 18] was 0.72 μm and the “Particle sizes D50” value [5, 18] was 1.86 μm.
With `NC(=O)N=NC(N)=O` [Batch K9K, azodicarbonamide] the “Particle sizes D10” value [5, 16] was 0.74 μm, the “Particle sizes D50” value [5, 16] was 1.93 μm and the “Particle sizes D10” value [5, 17] was 0.59 μm. For the same compound, the “Particle sizes D50” value [5, 17] was 1.56 μm, the “Particle sizes D10” value [5, 18] was 0.69 μm and the “Particle sizes D50” value [5, 18] was 1.74 μm.
For `NC(=O)N=NC(N)=O` [Batch K9L, azodicarbonamide], the “Particle sizes D10” value [5, 16] was 0.76 μm, the “Particle sizes D50” value [5, 16] was 2.08 μm and the “Particle sizes D10” value [5, 17] was 0.57 μm. The “Particle sizes D50” value [5, 17] was 1.58 μm, the “Particle sizes D10” value [5, 18] was 0.72 μm and the “Particle sizes D50” value [5, 18] was 1.88 μm.
For `NC(=O)N=NC(N)=O` [azodicarbonamide], the “Kidney stones or cylinders in urine” value (healthy male volunteers) was “No kidney stones or cylinders were observed”, the Adverse effect (rats) was “In neither of the two tests was any adverse effect observed” and the “Bioavailability of ADA in the blood (concentration of biurea)” value [6] was “appreciably better than the non-micronised ADA”. For the same compound, the “Bioavailability of ADA in the blood (concentration of biurea)” value ([6]; listed as ADA according to the invention) was “even better bioavailability than completely dissolved ADA”, the “Biurea crystals in kidneys (histological examination)” value (dogs; 400 mg/kg/day for 28 days) was “no biurea crystals were observed” and the Adverse effect (dogs; oral, daily 400, 100 and 25 mg/kg for 28 days) was “In neither of the two tests was any adverse effect observed”. For the same compound, the “Stability of particle size on storage” value ([5]; no additive, 11 months 8° C. plus 3 months 25° C./60% humidity, FIG. 3) was “stability of ADA according to the invention clearly results”.
